Measurements taken from paper PMC9090415, “Discovery of small molecule inhibitors of Plasmodium falciparum apicoplast DNA polymerase” (Journal of Enzyme Inhibition and Medicinal Chemistry, 2022).

Biological target: P. falciparum apicoplast DNA polymerase (Pf-apPOL) (Plasmodium falciparum, UniProt Q8ILY1)
Assay: Fluorescence-based high-throughput DNA polymerase assay (molecular beacon), primary screen and dose-response;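 for % inhibition ApPOL 90': test concentration in µM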;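 for % inhibition Apol 40': compound concentration given in µM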;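 for % inhibition apPOL 180': test concentration in µM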
Format: biochemical
Settings: for DNA Pol: 90 min, 10 µM
How it was run: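 Single-point screening used 10 µM compound with 20 nM polymerase, 20 nM hairpin substrate and 6 µM dNTPs for 90 min at 25 °C. Confirmatory titrations (2.5–80 µM) followed fluorescence at three times, and IC50 was derived from a fit including a cooperativity term n.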

[1] = "DNA Pol" of the 186 hits list (screen value)

Sequence of P. falciparum apicoplast DNA polymerase (Pf-apPOL) (Q8ILY1 entry or part of it): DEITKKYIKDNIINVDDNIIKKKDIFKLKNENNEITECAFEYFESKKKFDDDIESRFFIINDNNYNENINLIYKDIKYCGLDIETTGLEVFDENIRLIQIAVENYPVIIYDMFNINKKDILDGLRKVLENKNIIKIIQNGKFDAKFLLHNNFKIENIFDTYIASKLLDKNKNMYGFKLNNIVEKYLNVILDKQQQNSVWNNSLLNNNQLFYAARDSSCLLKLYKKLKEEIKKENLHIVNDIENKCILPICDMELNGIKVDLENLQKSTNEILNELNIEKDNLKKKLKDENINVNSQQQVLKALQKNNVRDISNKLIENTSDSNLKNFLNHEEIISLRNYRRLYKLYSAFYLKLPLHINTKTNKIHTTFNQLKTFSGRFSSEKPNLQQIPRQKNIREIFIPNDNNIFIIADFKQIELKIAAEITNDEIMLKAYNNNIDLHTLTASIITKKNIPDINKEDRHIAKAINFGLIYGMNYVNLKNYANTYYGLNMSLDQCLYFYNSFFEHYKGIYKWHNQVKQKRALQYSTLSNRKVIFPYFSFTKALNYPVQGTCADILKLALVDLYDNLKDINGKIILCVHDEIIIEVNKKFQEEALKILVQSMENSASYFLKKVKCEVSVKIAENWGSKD

Cc1cccc2c(C(=O)NC(C)C)cc(N(C)C)nc12 [Molecule 47, CC(NC(=O)c1cc(nc2c1cccc2C)N(C)C)C]
DNA Pol ('DNA Pol' of the 186 hits list (primary screen value)): 22 | DNA Pol (DNA Pol (primary screen value)): 22 | % inhibition Apo pol 10' (DRC-1, concentration 2.5): 6.184% | % inhibition Apo pol 10' (DRC-1, concentration 5): 4.255% | % inhibition Apo pol 10' (DRC-1, concentration 10): 30.9701% | % inhibition Apo pol 10' (DRC-1, concentration 20): 57.6029% | % inhibition Apo pol 10' (DRC-1, concentration 40): 72.1055% | % inhibition Apo pol 10' (DRC-1, concentration 80): 75.9231% | % inhibition Apol 90' (DRC-1, concentration 2.5): 2.22% | % inhibition Apol 90' (DRC-1, concentration 5): 0.7023% | % inhibition Apol 90' (DRC-1, concentration 10): 20.6995% | % inhibition Apol 90' (DRC-1, concentration 20): 44.2849% | % inhibition Apol 90' (DRC-1, concentration 40): 67.2168% | % inhibition Apol 90' (DRC-1, concentration 80): 75.4674% | % inhibition apPOL 180' (DRC-1, concentration 2.5): 2.5191% | % inhibition apPOL 180' (DRC-1, concentration 5): -0.7995% | % inhibition apPOL 180' (DRC-1, concentration 10): 11.775% | % inhibition apPOL 180' (DRC-1, concentration 20): 29.3384% | % inhibition apPOL 180' (DRC-1, concentration 40): 56.4011% | % inhibition apPOL 180' (DRC-1, concentration 80): 69.9021% | % inhibition Apo pol 5' (DRC-2, concentration 2.5): 7% | % inhibition Apo pol 5' (DRC-2, concentration 5): 13% | % inhibition Apo pol 5' (DRC-2, concentration 10): 21% | % inhibition Apo pol 5' (DRC-2, concentration 20): 37% | % inhibition Apo pol 5' (DRC-2, concentration 40): 47% | % inhibition Apo pol 5' (DRC-2, concentration 80): 35% | % inhibition Apol 40' (DRC-2, concentration 2.5): 6.48% | % inhibition Apol 40' (DRC-2, concentration 5): 14% | % inhibition Apol 40' (DRC-2, concentration 10): 25% | % inhibition Apol 40' (DRC-2, concentration 20): 43% | % inhibition Apol 40' (DRC-2, concentration 40): 62% | % inhibition Apol 40' (DRC-2, concentration 80): 58% | % inhibition ApPOL 90' (DRC-2, concentration 2.5): 6% | % inhibition ApPOL 90' (DRC-2, concentration 5): 11% | % inhibition ApPOL 90' (DRC-2, concentration 10): 21% | % inhibition ApPOL 90' (DRC-2, concentration 20): 41% | % inhibition ApPOL 90' (DRC-2, concentration 40): 64% | % inhibition ApPOL 90' (DRC-2, concentration 80): 63% | % inhibition apPOL 180' (DRC-2, concentration 2.5): 1.25% | % inhibition apPOL 180' (DRC-2, concentration 5): 6.35% | % inhibition apPOL 180' (DRC-2, concentration 10): 14% | % inhibition apPOL 180' (DRC-2, concentration 20): 31% | % inhibition apPOL 180' (DRC-2, concentration 40): 60% | % inhibition apPOL 180' (DRC-2, concentration 80): 66%

O=C(O)CCS(=O)(=O)c1ccc(-c2ccc(S(=O)(=O)CCC(=O)O)cc2)cc1 [Molecule 32, OC(=O)CCS(=O)(=O)c1ccc(cc1)c1ccc(cc1)S(=O)(=O)CCC(=O)O]
DNA Pol [1]: 40 | % inhibition Apo pol 10' (DRC-1, concentration 2.5): 22.5031% | % inhibition Apo pol 10' (DRC-1, concentration 5): 45.6696% | % inhibition Apo pol 10' (DRC-1, concentration 10): 64.9587% | % inhibition Apo pol 10' (DRC-1, concentration 20): 75.2971% | % inhibition Apo pol 10' (DRC-1, concentration 40): 82.8671% | % inhibition Apo pol 10' (DRC-1, concentration 80): 87.3536% | % inhibition Apol 90' (DRC-1, concentration 2.5): 7.663% | % inhibition Apol 90' (DRC-1, concentration 5): 20.8234% | % inhibition Apol 90' (DRC-1, concentration 10): 43.1445% | % inhibition Apol 90' (DRC-1, concentration 20): 59.5248% | % inhibition Apol 90' (DRC-1, concentration 40): 71.1176% | % inhibition Apol 90' (DRC-1, concentration 80): 79.0648% | % inhibition apPOL 180' (DRC-1, concentration 2.5): -2.177% | % inhibition apPOL 180' (DRC-1, concentration 5): 7.502% | % inhibition apPOL 180' (DRC-1, concentration 10): 30.5046% | % inhibition apPOL 180' (DRC-1, concentration 20): 50.8957% | % inhibition apPOL 180' (DRC-1, concentration 40): 64.8259% | % inhibition apPOL 180' (DRC-1, concentration 80): 73.8924% | % inhibition Apo pol 5' (DRC-2, concentration 2.5): 15% | % inhibition Apo pol 5' (DRC-2, concentration 5): 24% | % inhibition Apo pol 5' (DRC-2, concentration 10): 39% | % inhibition Apo pol 5' (DRC-2, concentration 20): 43% | % inhibition Apo pol 5' (DRC-2, concentration 40): 49% | % inhibition Apo pol 5' (DRC-2, concentration 80): 51% | % inhibition Apol 40' (DRC-2, concentration 2.5): 10% | % inhibition Apol 40' (DRC-2, concentration 5): 15% | % inhibition Apol 40' (DRC-2, concentration 10): 31% | % inhibition Apol 40' (DRC-2, concentration 20): 40% | % inhibition Apol 40' (DRC-2, concentration 40): 53% | % inhibition Apol 40' (DRC-2, concentration 80): 63% | % inhibition ApPOL 90' (DRC-2, concentration 2.5): 5.57% | % inhibition ApPOL 90' (DRC-2, concentration 5): 8% | % inhibition ApPOL 90' (DRC-2, concentration 10): 26% | % inhibition ApPOL 90' (DRC-2, concentration 20): 37% | % inhibition ApPOL 90' (DRC-2, concentration 40): 52% | % inhibition ApPOL 90' (DRC-2, concentration 80): 65% | % inhibition apPOL 180' (DRC-2, concentration 2.5): -4.51% | % inhibition apPOL 180' (DRC-2, concentration 5): -2.16% | % inhibition apPOL 180' (DRC-2, concentration 10): 17% | % inhibition apPOL 180' (DRC-2, concentration 20): 32% | % inhibition apPOL 180' (DRC-2, concentration 40): 49% | % inhibition apPOL 180' (DRC-2, concentration 80): 64% | DNA Pol (primary screen value, DNA Pol): 40

CC1(C)CC(=O)C2=C(C1)OC1=C(C(=O)CC(C)(C)C1)C2c1ccc(O)cc1 [KU0194226]
DNA Pol [1]: 31 | % inhibition Apo pol 10' (DRC-1, concentration 2.5): 1.4755% | % inhibition Apo pol 10' (DRC-1, concentration 5): 6.619% | % inhibition Apo pol 10' (DRC-1, concentration 10): 20.9207% | % inhibition Apo pol 10' (DRC-1, concentration 20): 40.5777% | % inhibition Apo pol 10' (DRC-1, concentration 40): 75.7382% | % inhibition Apo pol 10' (DRC-1, concentration 80): 84.2344% | % inhibition Apol 90' (DRC-1, concentration 2.5): 3.436% | % inhibition Apol 90' (DRC-1, concentration 5): 6.7212% | % inhibition Apol 90' (DRC-1, concentration 10): 20.1854% | % inhibition Apol 90' (DRC-1, concentration 20): 38.6225% | % inhibition Apol 90' (DRC-1, concentration 40): 72.348% | % inhibition Apol 90' (DRC-1, concentration 80): 80.6214% | % inhibition apPOL 180' (DRC-1, concentration 2.5): 2.939% | % inhibition apPOL 180' (DRC-1, concentration 5): 5.25% | % inhibition apPOL 180' (DRC-1, concentration 10): 19.133% | % inhibition apPOL 180' (DRC-1, concentration 20): 35.7891% | % inhibition apPOL 180' (DRC-1, concentration 40): 67.9328% | % inhibition apPOL 180' (DRC-1, concentration 80): 76.0012% | % inhibition Apo pol 5' (DRC-2, concentration 2.5): 2.55% | % inhibition Apo pol 5' (DRC-2, concentration 5): 2.7% | % inhibition Apo pol 5' (DRC-2, concentration 10): 17% | % inhibition Apo pol 5' (DRC-2, concentration 20): 21% | % inhibition Apo pol 5' (DRC-2, concentration 40): 37% | % inhibition Apo pol 5' (DRC-2, concentration 80): 35% | % inhibition Apol 40' (DRC-2, concentration 2.5): 5.61% | % inhibition Apol 40' (DRC-2, concentration 5): -0.353% | % inhibition Apol 40' (DRC-2, concentration 10): 23% | % inhibition Apol 40' (DRC-2, concentration 20): 31% | % inhibition Apol 40' (DRC-2, concentration 40): 52% | % inhibition Apol 40' (DRC-2, concentration 80): 59% | % inhibition ApPOL 90' (DRC-2, concentration 2.5): 6% | % inhibition ApPOL 90' (DRC-2, concentration 5): -4.67% | % inhibition ApPOL 90' (DRC-2, concentration 10): 27% | % inhibition ApPOL 90' (DRC-2, concentration 20): 34% | % inhibition ApPOL 90' (DRC-2, concentration 40): 57% | % inhibition ApPOL 90' (DRC-2, concentration 80): 65% | % inhibition apPOL 180' (DRC-2, concentration 2.5): 5.45% | % inhibition apPOL 180' (DRC-2, concentration 5): -63% | % inhibition apPOL 180' (DRC-2, concentration 10): 27% | % inhibition apPOL 180' (DRC-2, concentration 20): 36% | % inhibition apPOL 180' (DRC-2, concentration 40): 61% | % inhibition apPOL 180' (DRC-2, concentration 80): 70% | DNA Pol (primary screen value, DNA Pol): 31
